Measurements taken from patent US20260317367A1, “SALTS INCLUDING CRYSTALLINE SALTS OF 25-HYDROXY-CHOLEST-5-EN-3-SULFATE AND METHODS FOR PREPARING SAME” (Durect Corporation, priority 2022, published 2026).
Where a name gives a salt, the structure may show the parent alone.

Assays:
Format in all cases: physicochemical
[1] = Solubility of 25HC3S salts after one day at room temperature (HPLC, as free acid); details: room temperature, one day
Summary of the method: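 25HC3S salts were shaken with excess solid at room temperature for one day in organic solvents or aqueous/biorelevant media (FaSSIF, FeSSIF, FaSSGF), then centrifuged. Supernatants were assayed by HPLC against a free-acid standard curve (11 μg/mL to 1.5 mg/mL); values are mg/mL free acid, LOD 0.0007 mg/mL.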

[2] = Final pH of the solubility sample solutions in aqueous media
Summary of the method: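 25HC3S salts shaken as excess-solid suspensions in aqueous media at room temperature (210 motions/min) for one day. Aliquots centrifuged at 12000 rpm for 12–15 min; clear supernatant assayed undiluted by HPLC.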

[3] = Solid-state chemical stability of 25HC3S salts at 2-8° C., 60° C. and 80° C. (HPLC assay and degradation products); details: for % Impurities, Total / % Impurities, 25-HC: ND = Not Detected; for Overall physical and chemical stability (in words): 60° C.; for % Impurities, 25-HC: 25-Hydroxy-Cholesterol
Summary of the method: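 Crystalline 25HC3S salts (~25 mg powder per vial) stored at 2-8° C. or 80° C., pulled at 3 and 6 weeks; some 3-week 2-8° C. vials moved to 60° C. for 1 week. Dissolved in 100% methanol (sonication/vortexing, centrifugation or dilution), then HPLC against 25HC3S sodium standards (0.75-1.25 mg/mL) for assay and degradants.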

[4] = Appearance (color, clumping, flowability) of stored 25HC3S salts
[5] = Hausner ratio and compressibility index of 25HC3S salts; details: listed as 25HC3S choline
Summary of the method: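 Powder poured into a 5 mL graduated cylinder to about 5.0 mL (Vo), tapped 200 then 100 more times on a hard surface; final volume Vf recorded after 300 taps. Compressibility index and Hausner ratio calculated from Vo and Vf; flow character classed per USP <1174>.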

[6] = Overall rank order of powder flowability (angle of repose and Hausner ratio)
Description: Table C5 was generated by adding the relative rank order of the 25HC3S salts for angle of repose and Hausner ratio results, and creating an Over All Rank Order of the salts powder flowability. The salts with the lower overall rank order score had better powder flowability.

[7] = 2-8° C., 3 wk, listed as 25HC3S choline
[8] = 2-8° C., 5 wk, listed as 25HC3S choline
[9] = 80° C., 3 wk, listed as 25HC3S choline
[10] = 80° C., 5 wk, listed as 25HC3S choline
[11] = rank, lower is better flow, listed as 25HC3S choline

CC(CCCC(C)(C)O)C1CCC2C3CC=C4CC(OS(=O)(=O)O)CCC4(C)C3CCC12C (stereo not drawn) [Salt #4]
Solubility in 5% Dextrose ([1]; 5% dextrose, as free acid, ND = not detected, detection limit 0.7 μg/mL, 1440 min, listed as 25HC3S choline): 93 µg/mL | Solubility in FaSSGF ([1]; FaSSGF, as free acid, ND = not detected, detection limit 0.7 μg/mL, 1440 min, listed as 25HC3S choline): 8 µg/mL | Solubility in FaSSGF (in words) ([1]; FaSSGF, listed as crystalline 25HC3S choline): low solubility | Solubility in FaSSIF ([1]; FaSSIF, as free acid, 1440 min, listed as 25HC3S choline): 152 µg/mL | Solubility in FaSSIF (in words) ([1]; FaSSIF, listed as crystalline 25HC3S choline): relatively high solubility | Solubility in FeSSIF ([1]; FeSSIF, as free acid, 1440 min, listed as 25HC3S choline): 827 µg/mL | Solubility in FeSSIF (in words) ([1]; FeSSIF, listed as crystalline 25HC3S choline): relatively high solubility | Solubility in ACN ([1]; acetonitrile, as free acid, 1440 min, listed as 25HC3S choline): 500 µg/mL | Solubility in EtOH ([1]; ethanol, as free acid, ≥ = did not reach saturation, 1440 min, listed as 25HC3S choline): 3400 µg/mL | Solubility in IPA ([1]; isopropyl alcohol, as free acid, 1440 min, listed as 25HC3S choline): 600 µg/mL | Solubility in MeOH ([1]; methanol, as free acid, ≥ = did not reach saturation, 1440 min, listed as 25HC3S choline): 17500 µg/mL | Solubility in saline / 0.9% sodium chloride (in words) ([1]; saline, listed as crystalline 25HC3S choline): low solubility | Solubility in H2O ([1]; water, as free acid, ND = not detected, detection limit 0.7 μg/mL, 1440 min, listed as 25HC3S choline): 107 µg/mL | pH of the solubility sample, 0.9% Sodium Chloride ([2]; 0.9% sodium chloride (blank 5.8), listed as 25HC3S choline): 8.2 | pH of the solubility sample, 5% Dextrose ([2]; 5% dextrose (blank 4.7), listed as 25HC3S choline): 7.3 | pH of the solubility sample, FaSSGF ([2]; FaSSGF (blank 1.5, 1.6)): 1.6 | pH of the solubility sample, FaSSIF ([2]; FaSSIF (blank 6.5, 6.5), listed as 25HC3S choline): 6.5 | pH of the solubility sample, FeSSIF ([2]; FeSSIF (blank 4.9, 5.0)): 5.0 | pH of the solubility sample, Water ([2]; water (blank 6.3), listed as 25HC3S choline): 8.8 | Assay ([3]; 2-8° C., 3 wk, 30240 min, listed as 25HC3S choline): 101.6 % w/w | % Impurities, Total [3, 7]: 1.0% | Assay ([3]; 2-8° C., 5 wk, 50400 min, listed as 25HC3S choline): 108.1 % w/w | % Impurities, Total [3, 8]: 0.9% | Overall physical and chemical stability (in words) ([3]; 2-8° C., 80° C.): physically and chemically stable | Overall physical and chemical stability (in words) ([3]; 2-8° C., 80° C., listed as 25HC3S choline): relatively stable | % Impurities, 25-HC [3, 7]: 0.2% | % Impurities, 25-HC [3, 8]: 0.2% | % Impurities, 25-HC [3, 9]: 0.4% | % Impurities, 25-HC [3, 10]: 0.2% | Stressed stability at 80° C. (in words) ([3]; 80° C.): good, stressed stability | % Recovery ([3]; 80° C., 3 wk, vs 2-8° C., 30240 min, listed as 25HC3S choline, 30240 min): 100.8% | Assay ([3]; 80° C., 3 wk, 30240 min, listed as 25HC3S choline): 102.4 % w/w | % Impurities, Total [3, 9]: 1.2% | Physical and chemical solid-state stability (comments) ([3]; 80° C., 5 weeks): Stable after 5 weeks at 80 °C physically and chemically. | Assay ([3]; 80° C., 5 wk, 50400 min, listed as 25HC3S choline): 105.2 % w/w | % Impurities, Total [3, 10]: 2.2% | Stability after 5 weeks at 80° C. (in words) ([3]; solid state, 80° C., 5 weeks): stable | remaining at 840 h ([3]; solid state, 80° C., 5 wk, read-out: % Recovery, 2-8° C./5 wk vs 80° C./5 wk): 97.3% | Appearance [4, 7]: White, free flowing powder with clumping | Appearance ([4]; 2-8° C., 5 wk): White, free flowing powder with clumping | Appearance [4, 9]: White, free flowing powder with clumping | Appearance ([4]; 80° C., 5 wk): White, free flowing powder with clumping | Compressibility Index ([5]; Table C3 heads this index in %): 42 | Hausner Ratio [5]: 1.72 | Powder flowability, overall (in words) ([6]; angle of repose and compressibility index/Hausner ratio combined, listed as choline): next group | Angle of Repose Rank Order [6, 11]: 4 | Hausner Ratio Rank Order [6, 11]: 15 | Overall Rank Order (Total Score) ([6]; sum of both ranks, lower is better flow, listed as 25HC3S choline): 19
